Results reported in patent US6914045B2, “Glycopeptide antibiotics” (Wyeth Holdings Corporation, priority 2001, dated 2005).
Converted amounts (≈) assume the structure as drawn. Blank lines part the entries; values can stand above or below the molecule they belong to.

Tests used:
Assay in all cases: in vitro antibacterial evaluation, MIC by broth dilution
Format in all cases: cell-based
[1] = system: Enterococcus sp.; settings: broth dilution, 18 hours at 35° C.; for MIC Enterococcus faecalis (GC 2242): strain GC 2242; for MIC Enterococcus faecalis (GC 4552): strain GC 4552
Method in brief: (§1)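 Broth dilution per NCCLS M7-A2 in Mueller-Hinton II medium, inoculum 5×10^5 CFU/mL, antibiotic range 64-0.06 μg/mL. MIC taken as lowest concentration inhibiting growth; Gram-positive panel includes recent clinical isolates resistant to methicillin, penicillin and/or vancomycin.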

[2] = system: Streptococcus sp.; settings: broth dilution, 18 hours at 35° C.; for MIC Streptococcus agalactiae (GC 4564): strain GC 4564; for MIC Streptococcus pyogenes (ID-3187): strain ID-3187
Method in brief: as §1

[3] = system: Escherichia coli; settings: 18 hours at 35° C.
Method in brief: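 MIC = lowest antibiotic concentration preventing visible growth; inoculum 5×10^5 CFU/mL; drug range 64-0.06 μg/mL; Muller-Hinton II […]; NCCLS M7-A2 guidance.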

[4] = system: Staphylococcus sp.; settings: broth dilution, 18 hours at 35° C.
Method in brief: as §1

[5] = Enterococcus faecalis (ATCC 29212)
[6] = Enterococcus faecalis (GC 4553)
[7] = Enterococcus faecalis (GC 4554)

MIC Enterococcus avium (GC 4558) ([1]; Enterococcus avium (GC 4558)): 64 µg/mL (≈ 46.2 µM) | MIC Enterococcus faecalis (ATCC 29212) [1, 5]: 64 µg/mL (≈ 46.2 µM) | MIC Enterococcus faecalis (GC 4553) [1, 6]: 64 µg/mL (≈ 46.2 µM) | MIC Enterococcus faecalis (GC 4554) [1, 7]: >64 µg/mL | MIC Enterococcus faecium (GC 2243) ([1]; Enterococcus faecium (GC 2243)): 64 µg/mL (≈ 46.2 µM) | MIC Enterococcus faecium (GC 4556) ([1]; Enterococcus faecium (GC 4556)): 64 µg/mL (≈ 46.2 µM) | MIC Enterococcus faecium (GC 4557) ([1]; Enterococcus faecium (GC 4557)): 8 µg/mL (≈ 5.77 µM) | MIC Enterococcus faecalis (ATCC 29212) ([1]; strain ATCC 29212): 64 µg/mL (≈ 46.2 µM) | MIC Enterococcus faecalis (GC 2242) [1]: 64 µg/mL (≈ 46.2 µM) | MIC Enterococcus faecium (GC 2243) ([1]; strain GC 2243): 64 µg/mL (≈ 46.2 µM) | MIC Enterococcus faecalis (GC 4552) [1]: 64 µg/mL (≈ 46.2 µM) | MIC Enterococcus faecalis (GC 4553) ([1]; strain GC 4553): 64 µg/mL (≈ 46.2 µM) | MIC Enterococcus faecalis (GC 4554) ([1]; strain GC 4554): >64 µg/mL | MIC Enterococcus faecium (GC 4556) ([1]; strain GC 4556): 64 µg/mL (≈ 46.2 µM) | MIC Enterococcus faecium (GC 4557) ([1]; strain GC 4557): 8 µg/mL (≈ 5.77 µM) | MIC Enterococcus avium (GC 4558) ([1]; strain GC 4558): 64 µg/mL (≈ 46.2 µM) | MIC Streptococcus agalactiae (GC 4564) [2]: 8 µg/mL (≈ 5.77 µM) | MIC Streptococcus pyogenes (ID-3187) [2]: 4 µg/mL (≈ 2.89 µM) | MIC Escherichia coli (ATCC 25922) [3]: >64 µg/mL | MIC Escherichia coli (GC 4559) [3]: 64 µg/mL (≈ 46.2 µM) | MIC Escherichia coli (GC 4560) [3]: 4 µg/mL (≈ 2.89 µM) | MIC Coagulase Negative Staphylococcus (GC 4547) [4]: 8 µg/mL (≈ 5.77 µM) | MIC Coagulase Negative Staphylococcus (GC 4548) [4]: 4 µg/mL (≈ 2.89 µM) | MIC Coagulase Negative Staphylococcus (GC 4549) [4]: 4 µg/mL (≈ 2.89 µM) | MIC Coagulase Negative Staphylococcus (GC 4551) [4]: 8 µg/mL (≈ 5.77 µM) | MIC Staphylococcus aureus (ATCC 29213) [4]: 16 µg/mL (≈ 11.5 µM) | MIC Staphylococcus aureus (GC 1131) [4]: 32 µg/mL (≈ 23.1 µM) | MIC Staphylococcus aureus (GC 4541) [4]: 8 µg/mL (≈ 5.77 µM) | MIC Staphylococcus aureus (GC 4542) [4]: 8 µg/mL (≈ 5.77 µM) | MIC Staphylococcus aureus (GC 4544) [4]: 8 µg/mL (≈ 5.77 µM) | MIC Staphylococcus aureus (GC 4545) [4]: 8 µg/mL (≈ 5.77 µM) | MIC Staphylococcus aureus-SMITH (GC 4543) [4]: 8 µg/mL (≈ 5.77 µM) | MIC Staphylococcus aureus (ATCC 29213) ([4]; strain ATCC 29213): 16 µg/mL (≈ 11.5 µM) | MIC Staphylococcus aureus (GC 1131) ([4]; strain GC 1131): 32 µg/mL (≈ 23.1 µM) | MIC Staphylococcus aureus (GC 4541) ([4]; strain GC 4541): 8 µg/mL (≈ 5.77 µM) | MIC Staphylococcus aureus (GC 4542) ([4]; strain GC 4542): 8 µg/mL (≈ 5.77 µM) | MIC Staphylococcus aureus (GC 4544) ([4]; strain GC 4544): 8 µg/mL (≈ 5.77 µM) | MIC Staphylococcus aureus (GC 4545) ([4]; strain GC 4545): 8 µg/mL (≈ 5.77 µM) | MIC Coagulase Negative Staphylococcus (GC 4547) ([4]; strain GC 4547): 8 µg/mL (≈ 5.77 µM) | MIC Coagulase Negative Staphylococcus (GC 4548) ([4]; strain GC 4548): 4 µg/mL (≈ 2.89 µM) | MIC Coagulase Negative Staphylococcus (GC 4549) ([4]; strain GC 4549): 4 µg/mL (≈ 2.89 µM) | MIC Coagulase Negative Staphylococcus (GC 4551) ([4]; strain GC 4551): 8 µg/mL (≈ 5.77 µM) | MIC Staphylococcus aureus-SMITH (GC 4543) ([4]; strain SMITH GC 4543): 8 µg/mL (≈ 5.77 µM)
Compound: CC(C)CC(=O)OC1C(O)C(CO)OC(OC2C(CO)OC(Oc3ccc(CC4NC(=O)C(C(C)c5cccs5)NC(=O)CNC(=O)C(CO)NC(=O)C(C(O)C5CNC(=N)N5C5OC(CO)C(O)C(O)C5O)NC(=O)C(C(O)C5CNC(=N)N5)NC4=O)cc3)C(O)C2O)C1O (stereo not drawn) [Example 265b, Cyclo[3-(2-thienyl)-2-aminobutanoyl-O-[4-O-[3-O-(3-methylbutanoyl)hexopyranosyl]hexoipyranosyl]tyrosyl-3-(2-iminoimidazolidin-4-yl)seryl-3-(3-hexolpyranosyl-2-iminoimidazolidin-4-yl)serylserylglycyl]]
MIC Staphylococcus haemolyticus (GC 4546) [4]: 8 µg/mL (≈ 5.77 µM) | MIC Staphylococcus haemolyticus (GC 4546) ([4]; strain GC 4546): 8 µg/mL (≈ 5.77 µM)

MIC Enterococcus avium (GC 4558) ([1]; Enterococcus avium (GC 4558)): 16 µg/mL (≈ 11.5 µM) | MIC Enterococcus faecalis (ATCC 29212) [1, 5]: 16 µg/mL (≈ 11.5 µM) | MIC Enterococcus faecalis (GC 4553) [1, 6]: 16 µg/mL (≈ 11.5 µM) | MIC Enterococcus faecalis (GC 4554) [1, 7]: 32 µg/mL (≈ 23 µM) | MIC Enterococcus faecium (GC 2243) ([1]; Enterococcus faecium (GC 2243)): 16 µg/mL (≈ 11.5 µM) | MIC Enterococcus faecium (GC 4556) ([1]; Enterococcus faecium (GC 4556)): 16 µg/mL (≈ 11.5 µM) | MIC Enterococcus faecium (GC 4557) ([1]; Enterococcus faecium (GC 4557)): 4 µg/mL (≈ 2.87 µM) | MIC Enterococcus faecalis (ATCC 29212) ([1]; strain ATCC 29212): 16 µg/mL (≈ 11.5 µM) | MIC Enterococcus faecalis (GC 2242) [1]: 16 µg/mL (≈ 11.5 µM) | MIC Enterococcus faecium (GC 2243) ([1]; strain GC 2243): 16 µg/mL (≈ 11.5 µM) | MIC Enterococcus faecalis (GC 4552) [1]: 16 µg/mL (≈ 11.5 µM) | MIC Enterococcus faecalis (GC 4553) ([1]; strain GC 4553): 16 µg/mL (≈ 11.5 µM) | MIC Enterococcus faecalis (GC 4554) ([1]; strain GC 4554): 32 µg/mL (≈ 23 µM) | MIC Enterococcus faecium (GC 4556) ([1]; strain GC 4556): 16 µg/mL (≈ 11.5 µM) | MIC Enterococcus faecium (GC 4557) ([1]; strain GC 4557): 4 µg/mL (≈ 2.87 µM) | MIC Enterococcus avium (GC 4558) ([1]; strain GC 4558): 16 µg/mL (≈ 11.5 µM) | MIC Streptococcus agalactiae (GC 4564) [2]: 1 µg/mL (≈ 0.718 µM) | MIC Streptococcus pyogenes (ID-3187) [2]: 1 µg/mL (≈ 0.718 µM) | MIC Escherichia coli (ATCC 25922) [3]: >64 µg/mL | MIC Escherichia coli (GC 4559) [3]: >64 µg/mL | MIC Escherichia coli (GC 4560) [3]: 2 µg/mL (≈ 1.44 µM) | MIC Coagulase Negative Staphylococcus (GC 4547) [4]: 2 µg/mL (≈ 1.44 µM) | MIC Coagulase Negative Staphylococcus (GC 4548) [4]: 2 µg/mL (≈ 1.44 µM) | MIC Coagulase Negative Staphylococcus (GC 4549) [4]: 2 µg/mL (≈ 1.44 µM) | MIC Coagulase Negative Staphylococcus (GC 4551) [4]: 4 µg/mL (≈ 2.87 µM) | MIC Staphylococcus aureus (ATCC 29213) [4]: 4 µg/mL (≈ 2.87 µM) | MIC Staphylococcus aureus (GC 1131) [4]: 4 µg/mL (≈ 2.87 µM) | MIC Staphylococcus aureus (GC 4541) [4]: 4 µg/mL (≈ 2.87 µM) | MIC Staphylococcus aureus (GC 4542) [4]: 4 µg/mL (≈ 2.87 µM) | MIC Staphylococcus aureus (GC 4544) [4]: 4 µg/mL (≈ 2.87 µM) | MIC Staphylococcus aureus (GC 4545) [4]: 4 µg/mL (≈ 2.87 µM) | MIC Staphylococcus aureus-SMITH (GC 4543) [4]: 4 µg/mL (≈ 2.87 µM) | MIC Staphylococcus aureus (ATCC 29213) ([4]; strain ATCC 29213): 4 µg/mL (≈ 2.87 µM) | MIC Staphylococcus aureus (GC 1131) ([4]; strain GC 1131): 4 µg/mL (≈ 2.87 µM) | MIC Staphylococcus aureus (GC 4541) ([4]; strain GC 4541): 4 µg/mL (≈ 2.87 µM) | MIC Staphylococcus aureus (GC 4542) ([4]; strain GC 4542): 4 µg/mL (≈ 2.87 µM) | MIC Staphylococcus aureus (GC 4544) ([4]; strain GC 4544): 4 µg/mL (≈ 2.87 µM) | MIC Staphylococcus aureus (GC 4545) ([4]; strain GC 4545): 4 µg/mL (≈ 2.87 µM) | MIC Coagulase Negative Staphylococcus (GC 4547) ([4]; strain GC 4547): 2 µg/mL (≈ 1.44 µM) | MIC Coagulase Negative Staphylococcus (GC 4548) ([4]; strain GC 4548): 2 µg/mL (≈ 1.44 µM) | MIC Coagulase Negative Staphylococcus (GC 4549) ([4]; strain GC 4549): 2 µg/mL (≈ 1.44 µM) | MIC Coagulase Negative Staphylococcus (GC 4551) ([4]; strain GC 4551): 4 µg/mL (≈ 2.87 µM) | MIC Staphylococcus aureus-SMITH (GC 4543) ([4]; strain SMITH GC 4543): 4 µg/mL (≈ 2.87 µM)
Compound: CC(C)CCC(=O)OC1C(OC2C(CO)OC(Oc3ccc(CC4NC(=O)C(C(C)c5ccccc5)NC(=O)CNC(=O)C(CO)NC(=O)C(C(O)C5CNC(=N)N5C5OC(CO)C(O)C(O)C5O)NC(=O)C(C(O)C5CNC(=N)N5)NC4=O)cc3)C(O)C2O)OC(CO)C(O)C1O (stereo not drawn) [Example 270a, Cyclo[glycyl-β-methylphenylalanyl-O-[4-O-[2-O-(4-methylventanovl)hexopyranosyl]-hexopyranosyl]tyrosyl-3-(2-iminoimidazolidin-4-yl)seryl-3-(3-hexopyranosyl-2-iminoimidazolidin-4-yl)serylseryl]]
MIC Staphylococcus haemolyticus (GC 4546) [4]: 2 µg/mL (≈ 1.44 µM) | MIC Staphylococcus haemolyticus (GC 4546) ([4]; strain GC 4546): 2 µg/mL (≈ 1.44 µM)
